Assay results taken from ChEMBL document CHEMBL5036382 (ACS Med Chem Lett, 2022).
Calls of active or inactive are those of the source. No cut-off for these calls is given here.

Key:
[1] = target: T1, DNA-directed RNA polymerase I subunit RPA1 (Homo sapiens, UniProt O95602); experiment: Inhibition of RNA polymerase 1 in human A-375 assessed as RPA194 degradation measured after 3 hrs by Hoechst 33342 staining based assay
[2] = Volume of distribution at steady state in CD1 mouse at 1 mg/kg, iv; type: ADME, organism-based; settings: in vivo, read-out: Vdss
[3] = Clearance in CD1 mouse at 1 mg/kg, iv; type: ADME, organism-based; settings: in vivo
[4] = Half life in CD1 mouse at 1 mg/kg, iv; type: ADME, organism-based; settings: in vivo
[5] = AUC (0 to infinity) in CD1 mouse at 30 mg/kg, po; type: ADME, organism-based; parameters: route oral, time infinity, dose 30 mg/kg; settings: in vivo
[6] = AUC (0 to infinity) in CD1 mouse at 1 mg/kg, iv; type: ADME, organism-based; parameters: time infinity, route intravenous, dose 1 mg/kg; settings: in vivo
[7] = Cmax in CD1 mouse at 30 mg/kg, po; type: ADME, organism-based; parameters: route oral, dose 30 mg/kg; settings: in vivo
[8] = system: A-375; experiment: Cytotoxicity against human A-375 cells assessed as reduction in cell viability incubated for 72 hrs by cell titer glo luminescent assay; settings: A-375, 72 h
[9] = Oral bioavailability in CD1 mouse at 30 mg/kg; type: ADME, organism-based; settings: in vivo
[10] = Metabolic stability in mouse liver microsomes at 1 uM assessed as intrinsic clearance measured after 45 mins by LC-MS/MS analysis; type: ADME, Microsome; settings: read-out: CLH
[11] = target: T1, DNA-directed RNA polymerase I subunit RPA1; experiment: Inhibition of RPA1 in human A-375 cells assessed as downregulation of RPA1 gene at 1 uM incubated for 6 hrs measured by qPCR analysis; type: cell-based
[12] = system: A-375; experiment: Inhibition of RPA2 in human A-375 cells assessed as downregulation of RPA2 gene at 1 uM incubated for 6 hrs measured by qPCR analysis; type: cell-based
[13] = system: A-375; experiment: Inhibition of RPA3 in human A-375 cells assessed as downregulation of RPA3 gene at 1 uM incubated for 6 hrs measured by qPCR analysis; type: cell-based
[14] = Cmax in CD1 mouse at 30 mg/kg, ip; settings: in vivo
[15] = Half life in CD1 mouse at 30 mg/kg, ip; settings: in vivo
[16] = AUC (0 to infinity) in CD1 mouse at 30 mg/kg, ip; settings: in vivo
[17] = target: T2, Cytochrome P450 1A2 (Homo sapiens, UniProt P05177); experiment: Inhibition of recombinant human hepatic CYP1A2 expressed in baculovirus insect cell expression system in presence of CEC substrate measured by fluorescence plate reader assay
T2 sequence (P05177 whole entry): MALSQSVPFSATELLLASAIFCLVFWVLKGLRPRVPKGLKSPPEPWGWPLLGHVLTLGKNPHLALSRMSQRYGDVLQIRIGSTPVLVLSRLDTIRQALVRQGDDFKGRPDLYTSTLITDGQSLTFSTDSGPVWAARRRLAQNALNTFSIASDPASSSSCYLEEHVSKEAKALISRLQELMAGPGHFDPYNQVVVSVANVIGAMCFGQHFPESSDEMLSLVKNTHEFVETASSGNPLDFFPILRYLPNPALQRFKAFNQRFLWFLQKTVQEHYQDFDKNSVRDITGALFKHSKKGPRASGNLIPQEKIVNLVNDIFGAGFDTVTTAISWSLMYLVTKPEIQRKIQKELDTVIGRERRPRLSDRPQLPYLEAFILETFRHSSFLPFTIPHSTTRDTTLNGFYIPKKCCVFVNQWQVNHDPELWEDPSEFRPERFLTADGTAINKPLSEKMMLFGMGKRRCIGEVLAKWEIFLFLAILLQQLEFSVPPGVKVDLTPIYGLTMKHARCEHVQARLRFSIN

[18] = target: Voltage-gated inwardly rectifying potassium channel KCNH2 (Homo sapiens, UniProt Q12809); experiment: Inhibition on hERG expressed in HEK293 cells by Qpatch method
Voltage-gated inwardly rectifying potassium channel KCNH2, sequence (Q12809 whole entry): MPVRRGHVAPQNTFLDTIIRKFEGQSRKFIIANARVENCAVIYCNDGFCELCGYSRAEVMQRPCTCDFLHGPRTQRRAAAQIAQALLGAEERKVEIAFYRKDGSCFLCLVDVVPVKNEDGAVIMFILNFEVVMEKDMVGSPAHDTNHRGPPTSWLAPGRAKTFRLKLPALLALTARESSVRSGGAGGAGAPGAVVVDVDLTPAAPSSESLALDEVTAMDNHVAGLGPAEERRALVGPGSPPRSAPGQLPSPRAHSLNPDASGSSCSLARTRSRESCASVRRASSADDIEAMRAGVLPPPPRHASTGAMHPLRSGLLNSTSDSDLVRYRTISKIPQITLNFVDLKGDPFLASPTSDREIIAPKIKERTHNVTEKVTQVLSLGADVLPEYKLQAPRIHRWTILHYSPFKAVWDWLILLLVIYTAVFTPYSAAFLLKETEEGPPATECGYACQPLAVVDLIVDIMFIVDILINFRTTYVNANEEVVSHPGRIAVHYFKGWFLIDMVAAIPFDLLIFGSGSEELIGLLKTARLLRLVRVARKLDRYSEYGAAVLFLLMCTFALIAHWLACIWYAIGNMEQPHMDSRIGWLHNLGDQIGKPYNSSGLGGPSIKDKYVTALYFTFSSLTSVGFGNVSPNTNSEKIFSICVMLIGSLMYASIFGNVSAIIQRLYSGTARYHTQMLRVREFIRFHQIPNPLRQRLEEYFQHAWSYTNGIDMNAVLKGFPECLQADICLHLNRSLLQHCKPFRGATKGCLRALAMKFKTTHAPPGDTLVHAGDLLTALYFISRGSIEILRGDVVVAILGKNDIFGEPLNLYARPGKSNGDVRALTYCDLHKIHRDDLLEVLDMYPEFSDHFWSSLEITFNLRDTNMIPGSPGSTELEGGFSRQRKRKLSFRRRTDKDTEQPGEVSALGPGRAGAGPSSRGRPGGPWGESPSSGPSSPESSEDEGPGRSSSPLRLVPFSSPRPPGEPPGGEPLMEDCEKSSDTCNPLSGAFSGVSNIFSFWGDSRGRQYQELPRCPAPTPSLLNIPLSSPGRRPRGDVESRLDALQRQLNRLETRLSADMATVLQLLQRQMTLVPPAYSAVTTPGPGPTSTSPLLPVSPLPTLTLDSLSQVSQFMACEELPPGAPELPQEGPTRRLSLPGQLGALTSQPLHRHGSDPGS

T1 sequence (O95602 whole entry): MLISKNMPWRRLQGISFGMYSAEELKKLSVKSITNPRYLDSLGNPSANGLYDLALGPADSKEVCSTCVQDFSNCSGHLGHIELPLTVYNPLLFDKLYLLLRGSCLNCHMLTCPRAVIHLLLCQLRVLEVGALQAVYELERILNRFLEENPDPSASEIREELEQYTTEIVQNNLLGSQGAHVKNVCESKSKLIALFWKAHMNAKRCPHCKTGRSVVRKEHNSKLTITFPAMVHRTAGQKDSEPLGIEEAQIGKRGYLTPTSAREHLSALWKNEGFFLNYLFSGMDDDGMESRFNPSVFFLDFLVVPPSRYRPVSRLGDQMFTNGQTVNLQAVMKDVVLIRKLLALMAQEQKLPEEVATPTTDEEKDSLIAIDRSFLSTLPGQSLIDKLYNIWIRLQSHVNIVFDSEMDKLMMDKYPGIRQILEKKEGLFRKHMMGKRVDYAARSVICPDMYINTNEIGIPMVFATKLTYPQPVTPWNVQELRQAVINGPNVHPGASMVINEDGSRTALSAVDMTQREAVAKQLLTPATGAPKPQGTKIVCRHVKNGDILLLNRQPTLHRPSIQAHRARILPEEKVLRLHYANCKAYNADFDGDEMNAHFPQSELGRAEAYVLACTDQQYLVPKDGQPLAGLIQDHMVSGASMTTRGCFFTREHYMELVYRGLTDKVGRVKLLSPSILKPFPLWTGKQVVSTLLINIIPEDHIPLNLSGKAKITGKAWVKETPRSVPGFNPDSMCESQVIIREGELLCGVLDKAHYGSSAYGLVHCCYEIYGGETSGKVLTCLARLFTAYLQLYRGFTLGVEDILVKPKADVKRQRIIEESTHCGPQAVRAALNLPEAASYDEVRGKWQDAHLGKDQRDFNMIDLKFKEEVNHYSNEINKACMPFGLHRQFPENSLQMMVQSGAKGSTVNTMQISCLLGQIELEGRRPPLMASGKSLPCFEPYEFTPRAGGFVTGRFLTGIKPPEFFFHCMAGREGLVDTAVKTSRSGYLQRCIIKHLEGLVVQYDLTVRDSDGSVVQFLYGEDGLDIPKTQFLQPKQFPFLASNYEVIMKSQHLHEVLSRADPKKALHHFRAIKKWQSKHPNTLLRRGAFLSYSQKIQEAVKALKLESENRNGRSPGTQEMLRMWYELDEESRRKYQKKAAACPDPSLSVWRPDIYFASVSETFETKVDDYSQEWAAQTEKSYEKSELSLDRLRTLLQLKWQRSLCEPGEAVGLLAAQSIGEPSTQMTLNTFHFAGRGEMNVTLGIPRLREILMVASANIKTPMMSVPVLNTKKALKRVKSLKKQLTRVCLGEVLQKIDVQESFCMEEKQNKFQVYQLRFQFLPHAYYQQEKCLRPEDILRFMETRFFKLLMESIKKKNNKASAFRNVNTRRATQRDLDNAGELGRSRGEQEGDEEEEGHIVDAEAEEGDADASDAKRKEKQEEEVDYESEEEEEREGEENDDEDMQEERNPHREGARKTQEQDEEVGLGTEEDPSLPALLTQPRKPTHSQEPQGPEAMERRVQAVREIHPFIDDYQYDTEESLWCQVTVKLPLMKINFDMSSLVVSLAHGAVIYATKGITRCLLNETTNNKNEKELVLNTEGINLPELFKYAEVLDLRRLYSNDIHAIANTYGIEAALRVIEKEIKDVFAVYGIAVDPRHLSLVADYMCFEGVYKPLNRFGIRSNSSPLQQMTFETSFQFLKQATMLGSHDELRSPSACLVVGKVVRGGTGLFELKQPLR

IC50 [1]	Compound	other results
> 10000 nM	O=C(NCCN1CCCC(F)(F)C1)c1cccn2c(=O)c3cc4ccccc4cc3nc12	
650 nM	O=C(NCC1CCCC(CO)N1)c1cccn2c(=O)c3cc4ccccc4cc3nc12 (stereo not drawn)	
780 nM	O=C(NCC1CCCN1)c1cccn2c(=O)c3cc4ccccc4cc3nc12 (stereo not drawn)	
920 nM	CC(NC(=O)c1cccn2c(=O)c3cc4ccccc4cc3nc12)C1CCCCN1 (stereo not drawn)	
> 10000 nM	O=C(NCCN1CCC(F)(F)C1)c1cccn2c(=O)c3cc4ccccc4cc3nc12	
740 nM	N#CC1CCN(CCNC(=O)c2cccn3c(=O)c4cc5ccccc5cc4nc23)CC1	
990 nM	CCN1CCCCC1CNC(=O)c1cccn2c(=O)c3cc4ccccc4cc3nc12 (stereo not drawn)	
> 10000 nM	O=C(NCCN1CCCC(F)C1)c1cccn2c(=O)c3cc4ccccc4cc3nc12 (stereo not drawn)	
1000 nM	CN1CCOCC1CNC(=O)c1cccn2c(=O)c3cc4ccccc4cc3nc12 (stereo not drawn)	
3940 nM	CN1CCCC1CNC(=O)c1cccn2c(=O)c3cc4ccccc4cc3nc12 (stereo not drawn)	
780 nM	O=C(NCCN1CCC(F)CC1)c1cccn2c(=O)c3cc4ccccc4cc3nc12	
590 nM	O=C(NCC1CCCCN1)c1cccn2c(=O)c3cc4ccccc4cc3nc12 (stereo not drawn)	
10000 nM	CC(C)N1CCCCC1CNC(=O)c1cccn2c(=O)c3cc4ccccc4cc3nc12 (stereo not drawn)	
> 10000 nM	O=C(NCCN1CCS(=O)(=O)CC1)c1cccn2c(=O)c3cc4ccccc4cc3nc12	
5750 nM	O=C(NCCN1CCC(F)C1)c1cccn2c(=O)c3cc4ccccc4cc3nc12 (stereo not drawn)	
10000 nM	O=C(NCCN1CCSCC1)c1cccn2c(=O)c3cc4ccccc4cc3nc12	

The next lines start with the molecule.

Compound	IC50 [1]	other results
O=C(NCCN1CCCC1)c1cccn2c(=O)c3ccc4ccccc4c3nc12	210 nM	Vd [2]: 33.2 L/kg; clearance [3]: 508 mL/min/kg; half-life [4]: 1.22 h; AUC(0-inf) [5]: 122 ng·h/mL; AUC(0-inf) [6]: 30.8 ng·h/mL; Cmax [7]: 13.9 ng/mL; IC50 [8]: 38 nM; bioavailability [9]: 13%; microsomal CLint at 1 µM [10]: 132 µL/min/mg; inhibition [11]: Active; inhibition [12]: inactive; inhibition [13]: inactive; Cmax [14]: 83 ng/mL; half-life [15]: 7.52 h; AUC(0-inf) [16]: 518 ng·h/mL
Cc1cc2nc3c(C(=O)NCCN4CCCC4)cccn3c(=O)c2cc1C	1160 nM	
O=C(NCCN1CCCC1)c1cccn2c(=O)c3c(ccc4ccccc43)nc12	> 10000 nM	
O=C(NCCN1CCCC1)c1cccn2c(=O)c3cc4c(cc3nc12)CCCC4	1390 nM	
O=C(NCCCN1CCCC1)c1cccn2c(=O)c3ccc4ccccc4c3nc12	> 10000 nM	
O=C(NC1CNC1)c1cccn2c(=O)c3ccc4ccccc4c3nc12	> 10000 nM	IC50 [17]: 200 nM; IC50 [18]: 3970 nM
O=C(NCCN1CC[C@H](F)C1)c1cccn2c(=O)c3ccc4ccccc4c3nc12	> 10000 nM	IC50 [17]: 4500 nM; IC50 [18]: > 10000 nM
O=C(NCCN1CCCCC1)c1cccn2c(=O)c3ccc4ccccc4c3nc12	640 nM	IC50 [17]: > 10000 nM; IC50 [18]: 3720 nM
O=C(NCCN1CCCC1)c1cccn2c(=O)c3cc4c(cc3nc12)OCO4	540 nM	
CNCCNC(=O)c1cccn2c(=O)c3ccc4ccccc4c3nc12	470 nM	IC50 [17]: 300 nM; IC50 [18]: > 10000 nM
CN1CCC(NC(=O)c2cccn3c(=O)c4ccc5ccccc5c4nc23)CC1	> 10000 nM	IC50 [17]: > 10000 nM; IC50 [18]: 7390 nM
O=C(NCCN1CCC(O)(O)CC1)c1cccn2c(=O)c3cc4ccccc4cc3nc12	600 nM	
O=C(NCCN1CCCC1)c1cccn2c1nc1cc3ccccc3cc12	1700 nM	
CN(C)CCNC(=O)c1cccn2c(=O)c3cc4ccccc4cc3nc12		inhibition [12]: inactive; inhibition [13]: inactive
COc1cc2nc3c(C(=O)NCCN4CCCC4)cccn3c(=O)c2cc1OC	6860 nM	
O=C(NCCN1CCC(F)(F)CC1)c1cccn2c(=O)c3cc4ccccc4cc3nc12	> 10000 nM	
O=C(NCCN1CCCC1)c1cccn2c(=O)c3cc4c(cc3nc12)OC(F)(F)O4	420 nM	
O=C(NCCN1CCCC1)c1cccn2c(=O)c3cc4c(cc3nc12)OCCO4	1040 nM	
CN(C)CCCNC(=O)c1cccn2c(=O)c3ccc4ccccc4c3nc12	> 10000 nM	
O=C(NCCN1CCCC1)c1cccn2c(=O)c3c(ccc4cnncc43)nc12	4200 nM	
O=C(NCCN1CCCC1)c1cccn2c1nc1cc3ccccc3nc12	6000 nM	
O=C(NCCO)c1cccn2c(=O)c3ccc4ccccc4c3nc12	9500 nM	IC50 [17]: 100 nM; IC50 [18]: > 10000 nM
CN1CCN(CCNC(=O)c2cccn3c(=O)c4ccc5ccccc5c4nc23)CC1	> 10000 nM	IC50 [17]: > 10000 nM; IC50 [18]: > 10000 nM
NCCNC(=O)c1cccn2c(=O)c3ccc4ccccc4c3nc12	> 10000 nM	IC50 [17]: > 10000 nM; IC50 [18]: > 10000 nM
CN(C)CCNC(=O)c1cccn2c(=O)c3ccc4ccccc4c3nc12	160 nM	
O=C(NCCN1CCCC1)c1c(O)ccn2c(=O)c3cc4ccccc4cc3nc12	5500 nM	
O=C(NCCN1CC[C@@H](F)C1)c1cccn2c(=O)c3ccc4ccccc4c3nc12	1900 nM	IC50 [17]: 2100 nM; IC50 [18]: 8260 nM
CCN(CC)CCNC(=O)c1cccn2c(=O)c3ccc4ccccc4c3nc12	600 nM	
